The values that follow come from ChEMBL document CHEMBL1126682, “Quinolone antimicrobial agents substituted with morpholines at the 7-position. Syntheses and structure-activity relationships” (J Med Chem, 1993).

Values after ≈ are worked out from the molar mass of the structure shown.

In general, solubility refers to the concentration that dissolves in the medium under given conditions. Read a high solubility as much dissolved substance. For orientation: MIC means the smallest concentration in the dilution series that meets the test's criterion for growth inhibition. Read a high MIC as weaker potency. Usually IC50 stands for the concentration that inhibits the measured activity by half.

Series [1] in a line: The compound was evaluated for the solubility in water at 25 degrees Centigrade. Type of series: ADME.
Series [2] relates to Escherichia coli. The series is described as follows: Minimum inhibition concentration against Escherichia coli NIHJ JC-2 strain. Type of series: functional.
Series [3] deals with Escherichia coli. Put plainly: Minimum inhibitory concentration against Escherichia coli KC14 strain. Type of series: functional.
The subject of the next series is Enterococcus faecalis. The series is described as follows: Minimum inhibition concentration against Enterococcus faecalis LS-101 strain. Type of series: functional.
Series [4] deals with GABA-A receptor; anion channel. Put plainly: Inhibition of [3H]muscimol binding to GABA A receptor 4-biphenylacetic acid at 10 e-4 M. Type of series: protein-complex assay. The conditions noted are these: read-out: IC50.
The target in series [5] is T1, GABA-A receptor; anion channel (Homo sapiens) (UniProt P14867+P47870+P18507+P28472+P48169+Q99928+Q9UN88+P34903+O00591+O14764+Q8N1C3+P18505+P78334+P47869+P31644+Q16445). The series is described as follows: Percentage of GABA-induced chloride currents with 10 e-5 M 4-biphenylacetic acid. Type of series: functional. The following applies: Bull Frog.
The target in series [6] is T1, GABA-A receptor; anion channel (Homo sapiens). Put plainly: Percentage of GABA-induced chloride currents with 10e-4 M 4-biphenylacetic acid. Type of series: functional. The conditions noted are these: Bull Frog.
Series [7] has the same target. Put plainly: Percentage of GABA-induced chloride currents with compound alone at 10 e-4 M. Type of series: functional. The conditions noted are these: Bull Frog.
The test system of series [8] is Mus musculus. The series is described as follows: Percentage of mice with convulsion (400 mg/kg fenbufen). Type of series: functional.
Series [9] deals with Mus musculus. Put plainly: Percentage of mice with convulsion with compound alone at 400 mg/kg. Type of series: functional.
The subject of series [10] is Escherichia coli. The series is described as follows: Effective dose against Escherichia coli KC14 strain in mouse. Type of series: functional.
The test system of series [11] is Staphylococcus aureus. Put plainly: Effective dose against Staphylococcus aureus smith strain in mouse. Type of series: functional.
In a further series the test system is Pseudomonas aeruginosa. The series is described as follows: Minimum inhibition concentration against Pseudomonas aeruginosa U-31 strain. Type of series: functional.
The test system of series [12] is Staphylococcus aureus. Put plainly: Minimum inhibition concentration against Staphylococcus aureus FDA209P strain. Type of series: functional.
In series [13] the test system is Staphylococcus aureus. The series is described as follows: Minimum inhibitory concentration against Staphylococcus aureus Smith. Type of series: functional.
Another series relates to Streptococcus pneumoniae. The series is described as follows: Minimum inhibition concentration against Streptococcus pneumoniae Type I strain. Type of series: functional.
Series [14] deals with GABA-A receptor; anion channel. The series is described as follows: Inhibition of [3H]muscimol binding to GABA A receptor with compound alone at 10 e-4 M. Type of series: protein-complex assay.
In series [15] the test system is Staphylococcus aureus. The series is described as follows: Minimum inhibition concentration against Staphylococcus aureus MRSA strain. Type of series: functional.

For `CN(C)CC1CN(c2c(F)cc3c(=O)c(C(=O)O)cn(C4CC4)c3c2F)CCO1` (centres undefined), in [1], the solubility was more than 1000 µg/mL. Further, the MIC with Escherichia coli [2] turned out to be 0.2 µg/mL (≈ 0.491 µM); in the series with Escherichia coli [3], 0.05 µg/mL (≈ 0.123 µM); against Enterococcus faecalis, 0.39 µg/mL (≈ 0.957 µM); against Pseudomonas aeruginosa, 3.13 µg/mL (≈ 7.68 µM); with Staphylococcus aureus [12] it was 0.025 µg/mL (≈ 0.0614 µM); against Staphylococcus aureus [13] it was 0.012 µg/mL (≈ 0.0295 µM). For the same compound, the minimal inhibitory concentration (MIC) in the series with Streptococcus pneumoniae came out at 0.05 µg/mL (≈ 0.123 µM). Moreover, the IC50 in series [4] and in series [14] was more than 100 µM throughout. The Currents turned out to be 89% in series [5], 83% in series [6] and 91% in series [7]. The Convulsion in the series on Mus musculus [8] and in the series with Mus musculus [9] was 0% throughout. The ED50 with Escherichia coli [10] turned out to be 0.009 mg mouse-1; in the series with Staphylococcus aureus [11] it was 0.035 mg mouse-1.
Take `NCC1CN(c2c(F)cc3c(=O)c(C(=O)O)cn(-c4cc(F)cc(F)c4)c3c2F)CCO1` (centres undefined): the MIC with Escherichia coli [2] stood at 0.39 µg/mL (≈ 0.864 µM); against Enterococcus faecalis, 0.39 µg/mL (≈ 0.864 µM); against Pseudomonas aeruginosa it was 6.25 µg/mL (≈ 13.8 µM); in the series with Staphylococcus aureus [12] it was 0.2 µg/mL (≈ 0.443 µM); against Streptococcus pneumoniae, 0.2 µg/mL (≈ 0.443 µM).
As to `NCC1CN(c2c(F)cc3c(=O)c(C(=O)O)cn(C4CC4)c3c2F)CCCO1` (centres undefined), the MIC was 0.39 µg/mL (≈ 0.991 µM) against Escherichia coli [2]; 1.56 µg/mL (≈ 3.97 µM) against Enterococcus faecalis; 6.25 µg/mL (≈ 15.9 µM) with Pseudomonas aeruginosa; 0.78 µg/mL (≈ 1.98 µM) in the series with Staphylococcus aureus [12]; 1.56 µg/mL (≈ 3.97 µM) against Streptococcus pneumoniae.
Take `NCC1CN(c2c(F)cc3c(=O)c(C(=O)O)cn(C4CC4)c3c2F)CCO1` (centres undefined): the concentration in solution in series [1] (solubility) was 580 µg/mL (≈ 1530 µM). The MIC in the series with Escherichia coli [2] came to 0.1 µg/mL (≈ 0.264 µM); against Escherichia coli [3] it was 0.05 µg/mL (≈ 0.132 µM); in the series with Enterococcus faecalis it was 0.05 µg/mL (≈ 0.132 µM); with Pseudomonas aeruginosa it was 0.78 µg/mL (≈ 2.06 µM); against Staphylococcus aureus [12] it was 0.025 µg/mL (≈ 0.0659 µM); in the series with Staphylococcus aureus [13], 0.012 µg/mL (≈ 0.0316 µM). Besides, in the series with Streptococcus pneumoniae, the minimum inhibitory concentration (MIC) was 0.05 µg/mL (≈ 0.132 µM). The IC50 in [4] and in series [14] was more than 100 µM each time. Moreover, the Currents was 90% in series [5], 72% in series [6] and 90% in [7]. Moreover, the Convulsion in the series on Mus musculus [8] and in the series on Mus musculus [9] was 0% each time. Also, the ED50 is 0.017 mg mouse-1 in the series on Escherichia coli [10] and 0.067 mg mouse-1 in the series on Staphylococcus aureus [11].
For the compound `CC1COc2c(N3CCOC(CN)C3)c(F)cc3c(=O)c(C(=O)O)cn1c23` (centres undefined), the MIC worked out at 3.13 µg/mL (≈ 8.29 µM) against Escherichia coli [2]; 3.13 µg/mL (≈ 8.29 µM) with Enterococcus faecalis; 25 µg/mL (≈ 66.2 µM) against Pseudomonas aeruginosa; 0.78 µg/mL (≈ 2.07 µM) in the series with Staphylococcus aureus [12]; 12.5 µg/mL (≈ 33.1 µM) in the series with Streptococcus pneumoniae.
As to `NCC1CN(c2c(F)cc3c(=O)c(C(=O)O)cn(CCF)c3c2F)CCO1` (centres undefined), the MIC with Escherichia coli [2] worked out at 6.25 µg/mL (≈ 16.2 µM); in the series with Enterococcus faecalis, 0.78 µg/mL (≈ 2.02 µM); against Pseudomonas aeruginosa, 25 µg/mL (≈ 64.9 µM); in the series on Staphylococcus aureus [12], 0.78 µg/mL (≈ 2.02 µM); against Streptococcus pneumoniae, 3.13 µg/mL (≈ 8.12 µM).
As for `CC(=O)NCC1CN(c2c(F)cc3c(=O)c(C(=O)O)cn(C4CC4)c3c2F)CCO1` (centres undefined), the MIC is 1.56 µg/mL (≈ 3.7 µM) with Escherichia coli [2]; 0.78 µg/mL (≈ 1.85 µM) in the series with Enterococcus faecalis; 12.5 µg/mL (≈ 29.7 µM) with Pseudomonas aeruginosa; 0.2 µg/mL (≈ 0.475 µM) with Staphylococcus aureus [12]; 0.78 µg/mL (≈ 1.85 µM) against Streptococcus pneumoniae.
As for `CCn1cc(C(=O)O)c(=O)c2cc(F)c(N3CCOC(CN)C3)c(F)c21` (centres undefined), in series [1], the solubility was determined as 2900 µg/mL (≈ 7890 µM). In addition, the MIC with Escherichia coli [2] came to 1.56 µg/mL (≈ 4.25 µM); with Escherichia coli [3], 0.39 µg/mL (≈ 1.06 µM); in the series on Enterococcus faecalis, 0.39 µg/mL (≈ 1.06 µM); in the series with Pseudomonas aeruginosa it was 3.13 µg/mL (≈ 8.52 µM); in the series with Staphylococcus aureus [12], 0.2 µg/mL (≈ 0.544 µM); in the series with Staphylococcus aureus [13], 0.1 µg/mL (≈ 0.272 µM). For the same compound, in the series on Streptococcus pneumoniae, 0.39 µg/mL (≈ 1.06 µM) was the least that counted as inhibitory (MIC). The IC50 in series [4] and in [14] was more than 100 µM throughout. The Currents in series [5] turned out to be 89%; in series [6], 79%; in [7] it was 94%. Further, the Convulsion with Mus musculus [8] and in the series on Mus musculus [9] was 0% each time. The ED50 was 0.232 mg mouse-1 in the series on Escherichia coli [10] and 0.521 mg mouse-1 in the series with Staphylococcus aureus [11].
Consider `O=C(O)c1cn(C2CC2)c2c(F)c(N3CCNCC3)c(F)cc2c1=O`, for which the MIC came out at 0.006 µg/mL (≈ 0.0172 µM) in the series on Escherichia coli [2]; 0.2 µg/mL (≈ 0.573 µM) against Enterococcus faecalis; 0.1 µg/mL (≈ 0.286 µM) in the series on Pseudomonas aeruginosa; 0.1 µg/mL (≈ 0.286 µM) against Staphylococcus aureus [12]; 0.39 µg/mL (≈ 1.12 µM) in the series on Streptococcus pneumoniae; 0.78 µg/mL (≈ 2.23 µM) in the series with Staphylococcus aureus [15]. Besides, the 50% inhibitory concentration (IC50) amounted to 0.12 µM in series [4] and 64 µM in [14]. Also, the figures for the Currents in series [5], in [6] and in series [7] were 11%, 0% and 81%, respectively. For the same compound, the Convulsion in the series on Mus musculus [8] came to 88%; in the series with Mus musculus [9], 0%.
With `NCC1CN(c2c(F)cc3c(=O)c(C(=O)O)cn(C4CC4)c3c2Cl)CCO1` (centres undefined), the MIC in the series with Escherichia coli [2] is 0.1 µg/mL (≈ 0.253 µM); in the series with Enterococcus faecalis, 0.05 µg/mL (≈ 0.126 µM); in the series on Pseudomonas aeruginosa, 1.56 µg/mL (≈ 3.94 µM); against Staphylococcus aureus [12] it was 0.012 µg/mL (≈ 0.0303 µM); in the series on Streptococcus pneumoniae, 0.05 µg/mL (≈ 0.126 µM).
